Measured values as given in patent US7977326B2, “Supportive treatment of liver disease” (priority 2004, dated 2011).
Read-outs that look alike come from different tables or passages of the source.

Legend:
Hepatic liver microsomes = details: for Fluorescence Activity: 1 mM AAPH, n=6
Experimental: Hepatic liver microsomes were obtained from 4 healthy piglets as described previously. Microsomes were stored at −80° C. until required for study. Concentration of microsomes was 1 mg/ml. Diltiazem concentrations were 50 and 500 μM, Thiamine concentrations tested included 10, 50, and 100 μM. Free radical generator AAPH was 1 mM. The study detected hepatic lipid peroxidation products by analyzing the fluorescence activity of the dye DCFH by a plate reader as described in our previous report.
DCF-DA was treated with 2M NaOH and MeOH for 2 hours and after which time it was neutralized with HCl to yield the intracellular form of DCFH as described by the manufacturer. Hepatic microsomes were diluted to 1 mg/ml using Phosphate Buffered Saline (PBS). Microsomes were incubated with various concentrations of diltiazem, thiamine or in combination at 37° C. for 1 hour. Control microsomes were incubated with PBS (no drug treatment). Microsomal mixture was then incubated with 1 mM AAPH for 1 hour to initiate free radical induced lipid peroxidation for 1 hour at 37° C. Following incubation, the microsomal mixture was centrifuged at 2000 rpm using 5000 MWCO ultracentrifuge tubes and the procedure repeated twice with PBS to remove any AAPH and drug. Lipid peroxidized microsomes were incubated with 10 μM DCFH for 15 minutes and fluorescence activity recorded using a fluorescence plate reader.

[1] = test system: microvascular blood flow within the liver; details: in vivo; cited from earlier work
[2] = test system: piglet hepatic microsomal membranes; assay: DCF activity in AAPH induced free radical release in microsomes (lipid peroxidation); format: biochemical; parameters: DCF activity in AAPH induced free radical release: unit not given here; details: for inhibition of membrane oxidation (reduction in DCF activity): 0-1000 μM, AAPH; for DCF activity in AAPH induced free radical release: one hour at 37° C. then one hour AAPH
Experimental: The protective effect of diltiazem on cell membranes was examined in piglet hepatic microsomal membranes obtained from the livers of 3-week-old female piglets. […] Following incubation the microsomal mixture was centrifuged at 2000 rpm to remove excess AAPH and diltiazem. The extent of reactive oxygen species mediated lipid peroxidation in the microsomal membranes was then measured employing the fluorescence market dichlorofluoresen (DCF, 10μ for 15 min). Image analysis.

[3] = test system: piglet hepatic microsomal membranes; assay: Parallel studies using H2O2 as a free radical generator; format: biochemical
[4] = test system: patients with Hepatitis B; details: cited from earlier work

SMILES | Fluorescence Activity (Hepatic liver microsomes; Diltiazem 50 μM) | Fluorescence Activity (Hepatic liver microsomes; Diltiazem 500 μM) | effect on microvascular blood flow within the liver [1] | inhibition of membrane oxidation (reduction in DCF activity) [2] | DCF activity in AAPH induced free radical release ([2]; 5 μM) | DCF activity in AAPH induced free radical release ([2]; 50 μM) | DCF activity in AAPH induced free radical release ([2]; 250 μM) | DCF activity in AAPH induced free radical release ([2]; 500 μM) | DCF activity in AAPH induced free radical release ([2]; 1000 μM) | protection against H2O2 as free radical generator [3] | Fluorescence Activity (Hepatic liver microsomes; Thiamine 10 μM) | Fluorescence Activity (Hepatic liver microsomes; Thiamine 50 μM) | Fluorescence Activity (Hepatic liver microsomes; Thiamine 100 μM) | effect on fluorescence activity (free radical release), in words (Hepatic liver microsomes; thiamine added to microsomes) | effect on liver function [4]
COc1ccc([C@@H]2Sc3ccccc3N(CCN(C)C)C(=O)[C@@H]2OC(C)=O)cc1 (relative stereo) [Diltiazem, cis-(+)-3-(acetyloxy)-5-[2-(dimethylamino)ethyl]-2,3-dihydro-2-(4-methoxyphenyl)-1,5-benzothiazepin-4(5H)-one] | 36492 | 32271 | no effect | dose-dependent inhibition of membrane oxidation | 44501 | 38293 | 35148 | 31498 | 27258 | not protective | – | – | – | – | –
COc1ccc([C@H]2Sc3ccccc3N(CCN(C)C)C(=O)[C@H]2OC(C)=O)cc1 [L-diltiazem] | – | – | – | not | 52799 | 49949 | 51120 | 53182 | 49937 | – | – | – | – | – | –
Cc1ncc(C[n+]2csc(CCO)c2C)c(N)n1 [Thiamine, thiamine] | – | – | – | – | – | – | – | – | – | – | 31113 | 27265 | 23477 | reduced the fluorescence activity | improve liver function
